What is called Km is the substrate concentration at which the rate is half of its maximum.

Consider 11 compounds from publication PMC12564180 (International Journal of Molecular Sciences, 2025).

Data set [1] is described as follows: Depletion of 1 µM filapixant in human hepatocytes in absence and presence of CYP3A4 selective and pan-CYP inhibitors. It is filed as in vitro ADME. The conditions noted are these: 1 µM filapixant, in presence of the inhibitor.
The next data set has as its system pan-CYP. The data set is described as above. It is filed as in vitro ADME. Conditions: human, probe filapixant (1 µM, non-labeled), read-out: % of control CLint inhibited.
Data set [2] is described as follows: Incubation of 1 µM [3H]filapixant in human liver microsomes with CYP isoform-selective inhibitors. Type of data set: in vitro ADME. For orientation: Liver microsomes are a subcellular fraction often used to study metabolism.
In data set [3] the test system is CYP3A4. Briefly: Depletion of 1 µM filapixant in human hepatocytes in absence and presence of CYP3A4 selective and pan-CYP inhibitors. It is filed as in vitro ADME. The conditions noted are these: human, probe filapixant (1 µM, non-labeled), read-out: % of control CLint inhibited.
Data set [4] can be described thus: Clinical drug-drug interaction study filapixant with itraconazole: pharmacokinetics. It is filed as in vivo, human. The conditions noted are these: plasma, study day 4, itraconazole 200 mg once daily oral solution.
Procedure: Spontaneous reported adverse events were recorded as well adverse events that were reported after open-ended and non-leading verbal questioning of the participants to avoid bias. In addition, itraconazole concentrations were measured in plasma at selected time points to confirm that relevant inhibitory plasma levels were achieved.
The study was conducted in a single-center, open-label, fixed sequence design with two periods.
PK parameters were calculated by a non-compartmental analysis using the program WinNonlin version 5.3 (Pharsight Corporation, St. Louis, MO, USA), with the Automation Extension (version 2.90, Bayer Pharma AG, Wuppertal, Germany). The statistical evaluation was performed by using the software package SAS release 9.2 (SAS Institute Inc., Cary, NC, USA). All analyses were exploratory. Therefore, no multiplicity adjustments were performed.
The main PK metrics AUC and Cmax were statistically analyzed, assuming log-normally distributed data. Mean differences between treatments (and their standard error) were determined for logarithmized PK metrics. A total of 90% CIs for treatment differences were determined as well, applying standard methodology for log-normally distributed data. […] Only participants providing a valid PK profile from both study periods were to be included in the primary analysis.
In a further data set the target is T1, CYP1A1 (Homo sapiens, UniProt P04798).
T1 construct: purchased
T1 sequence (P04798 1-512): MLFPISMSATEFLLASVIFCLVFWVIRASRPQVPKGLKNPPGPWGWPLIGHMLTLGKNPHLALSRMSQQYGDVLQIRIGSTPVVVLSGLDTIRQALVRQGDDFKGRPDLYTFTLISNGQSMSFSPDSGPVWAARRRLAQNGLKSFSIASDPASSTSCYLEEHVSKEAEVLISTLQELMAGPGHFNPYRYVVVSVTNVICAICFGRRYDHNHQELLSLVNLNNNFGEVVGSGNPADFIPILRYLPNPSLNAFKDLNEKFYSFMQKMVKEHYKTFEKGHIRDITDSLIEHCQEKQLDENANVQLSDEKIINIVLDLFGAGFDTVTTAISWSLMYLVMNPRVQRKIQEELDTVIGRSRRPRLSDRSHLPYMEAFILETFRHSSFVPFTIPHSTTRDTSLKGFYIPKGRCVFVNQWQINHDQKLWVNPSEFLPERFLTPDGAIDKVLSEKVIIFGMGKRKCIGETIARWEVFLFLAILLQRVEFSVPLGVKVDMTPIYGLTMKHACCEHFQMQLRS
Briefly: Incubation of filapixant with human recombinant CYP1A1 (Supersomes). It is filed as in vitro ADME. The conditions noted are these: 1 µM [3H]filapixant, CYP1A1, 60 min.

The next data set deals with T2, CYP2D6 (Homo sapiens, UniProt P10635).
T2 construct: purchased
Kind of data set: Incubation of filapixant with human recombinant CYP2D6 (Supersomes). It is filed as in vitro ADME. Conditions: 1 µM [3H]filapixant, CYP2D6, 60 min.

The next data set addresses T3, CYP2J2 (Homo sapiens, UniProt P51589).
T3 construct: purchased
T3 sequence (P51589 1-502): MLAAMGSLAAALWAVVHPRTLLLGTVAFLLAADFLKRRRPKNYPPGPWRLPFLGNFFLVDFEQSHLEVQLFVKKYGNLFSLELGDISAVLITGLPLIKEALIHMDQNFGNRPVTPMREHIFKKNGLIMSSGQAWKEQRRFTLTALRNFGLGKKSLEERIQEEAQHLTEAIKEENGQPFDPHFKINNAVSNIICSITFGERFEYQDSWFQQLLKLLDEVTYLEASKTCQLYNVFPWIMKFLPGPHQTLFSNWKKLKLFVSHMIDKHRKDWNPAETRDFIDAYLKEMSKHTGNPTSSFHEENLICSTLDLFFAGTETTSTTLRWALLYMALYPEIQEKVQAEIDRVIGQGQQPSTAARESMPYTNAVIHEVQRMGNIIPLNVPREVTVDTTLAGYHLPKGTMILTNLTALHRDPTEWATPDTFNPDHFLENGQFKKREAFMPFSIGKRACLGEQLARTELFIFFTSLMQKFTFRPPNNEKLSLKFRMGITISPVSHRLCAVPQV
Briefly: Incubation of filapixant with human recombinant CYP2J2 (Supersomes). Type of data set: in vitro ADME. The conditions noted are these: 1 µM [3H]filapixant, CYP2J2, 60 min.

In data set [5] the target is T4, CYP3A4 (Homo sapiens, UniProt P08684).
T4 construct: purchased
Briefly: Incubation of filapixant with human recombinant CYP3A4 (Supersomes). The conditions noted are these: for Remaining drug and formation of metabolites, Peak Area: 1 µM [3H]filapixant, CYP3A4, 60 min; for Vmax of metabolite formation: filapixant in recombinant human CYP3A4 (25 pmol/mL), 20 min incubation. Type of data set: in vitro ADME.

A short description of data set [6]: Biotransformation and enzyme kinetics of filapixant in human liver microsomes. It is filed as in vitro ADME. Conditions: [3H]filapixant 1 µM, pooled human liver microsomes, 1 h of incubation, n = 1. As for the experimental part:
(§1) The incubations were analyzed by high-performance liquid chromatography (HPLC) with tandem mass spectroscopy (MS/MS) followed by off-line radioactivity detection to generate metabolite profiles and elucidate or confirm the structures of the metabolites formed.

Data set [7] can be described thus: Biotransformation of [3H]filapixant in human hepatocytes. Conditions: [3H]filapixant 1 µM, 4 h of incubation, range in three batches. It is filed as in vitro ADME. The protocol: as §1
In another data set the target is T5, CYP3A5 (Homo sapiens, UniProt P20815).
T5 construct: purchased
Kind of data set: Incubation of [3H]filapixant with human recombinant CYP3A5 (Supersomes). It is filed as in vitro ADME. The conditions noted are these: 1 µM [3H]filapixant, CYP3A5, 60 min.

Data set [8] can be described thus: Biotransformation and enzyme kinetics of filapixant in human liver microsomes. It is filed as in vitro ADME. Conditions: for Vmax of metabolite formation: filapixant in human liver microsomes (0.5 mg/mL), 30 min incubation; for Km at 30 min: human, human liver microsomes, probe filapixant (substrate), read-out: Km,app of metabolite formation.
The target in a further data set is T6, CYP2C9 (Homo sapiens, UniProt P11712).
T6 construct: purchased
Briefly: Incubation of [3H]filapixant with human recombinant CYP2C9 (Supersomes). It is filed as in vitro ADME. Conditions: 1 µM [3H]filapixant, CYP2C9, 60 min.

The next data set concerns the target T7, CYP4F2 (Homo sapiens, UniProt P78329).
T7 construct: purchased
T7 sequence (P78329 5-520): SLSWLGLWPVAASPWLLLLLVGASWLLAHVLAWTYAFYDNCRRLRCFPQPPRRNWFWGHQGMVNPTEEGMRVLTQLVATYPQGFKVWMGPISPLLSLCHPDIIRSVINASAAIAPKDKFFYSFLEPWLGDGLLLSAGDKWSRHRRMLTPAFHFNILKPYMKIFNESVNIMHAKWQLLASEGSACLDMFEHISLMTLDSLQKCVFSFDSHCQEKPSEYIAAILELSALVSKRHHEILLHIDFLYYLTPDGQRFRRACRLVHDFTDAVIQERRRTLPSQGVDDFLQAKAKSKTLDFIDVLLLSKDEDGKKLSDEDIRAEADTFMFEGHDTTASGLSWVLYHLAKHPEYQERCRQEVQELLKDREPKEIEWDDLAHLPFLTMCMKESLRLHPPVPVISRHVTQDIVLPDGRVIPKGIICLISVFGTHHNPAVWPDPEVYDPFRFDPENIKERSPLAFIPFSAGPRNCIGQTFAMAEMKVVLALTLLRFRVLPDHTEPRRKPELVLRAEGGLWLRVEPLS
Kind of data set: Incubation of [3H]filapixant with human recombinant CYP4F2 (Supersomes). Type of data set: in vitro ADME. The conditions noted are these: 1 µM [3H]filapixant, CYP4F2, 60 min.

In the next data set the target is T8, CYP2C19 (Homo sapiens, UniProt P33261).
T8 construct: purchased
Kind of data set: Incubation of [3H]filapixant with human recombinant CYP2C19 (Supersomes). Type of data set: in vitro ADME. The conditions noted are these: 1 µM [3H]filapixant, CYP2C19, 60 min.

The conditions of data set [9]: insect, 1 h, 1 µM.
For data set [10] the following is noted: patients; cited from earlier work.

T4 sequence (P08684 whole entry): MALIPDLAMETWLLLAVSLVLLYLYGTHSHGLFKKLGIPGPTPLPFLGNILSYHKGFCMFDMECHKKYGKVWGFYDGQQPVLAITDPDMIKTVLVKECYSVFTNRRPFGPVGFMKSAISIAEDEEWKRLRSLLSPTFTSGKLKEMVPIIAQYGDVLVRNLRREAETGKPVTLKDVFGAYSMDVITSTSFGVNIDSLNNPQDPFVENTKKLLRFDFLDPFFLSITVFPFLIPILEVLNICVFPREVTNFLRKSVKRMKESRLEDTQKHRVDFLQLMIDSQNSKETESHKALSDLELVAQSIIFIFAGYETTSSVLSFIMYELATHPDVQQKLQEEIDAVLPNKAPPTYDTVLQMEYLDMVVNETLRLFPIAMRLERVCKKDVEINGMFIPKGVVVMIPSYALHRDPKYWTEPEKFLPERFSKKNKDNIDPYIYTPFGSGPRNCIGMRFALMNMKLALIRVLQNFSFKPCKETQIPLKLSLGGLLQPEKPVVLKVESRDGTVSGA
T6 sequence (P11712 whole entry): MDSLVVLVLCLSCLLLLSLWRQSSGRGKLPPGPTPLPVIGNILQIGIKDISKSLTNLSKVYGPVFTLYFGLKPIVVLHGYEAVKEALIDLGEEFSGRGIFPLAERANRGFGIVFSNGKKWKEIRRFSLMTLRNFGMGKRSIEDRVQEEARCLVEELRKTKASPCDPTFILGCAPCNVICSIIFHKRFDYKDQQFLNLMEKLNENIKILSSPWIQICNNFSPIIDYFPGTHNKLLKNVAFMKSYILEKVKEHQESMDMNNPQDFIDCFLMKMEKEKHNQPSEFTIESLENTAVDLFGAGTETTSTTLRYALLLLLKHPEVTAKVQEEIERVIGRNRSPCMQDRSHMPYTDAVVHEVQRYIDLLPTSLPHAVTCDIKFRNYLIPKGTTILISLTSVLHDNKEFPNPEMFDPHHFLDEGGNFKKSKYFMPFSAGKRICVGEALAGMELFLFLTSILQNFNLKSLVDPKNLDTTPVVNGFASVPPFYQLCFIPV
T8 sequence (P33261 whole entry): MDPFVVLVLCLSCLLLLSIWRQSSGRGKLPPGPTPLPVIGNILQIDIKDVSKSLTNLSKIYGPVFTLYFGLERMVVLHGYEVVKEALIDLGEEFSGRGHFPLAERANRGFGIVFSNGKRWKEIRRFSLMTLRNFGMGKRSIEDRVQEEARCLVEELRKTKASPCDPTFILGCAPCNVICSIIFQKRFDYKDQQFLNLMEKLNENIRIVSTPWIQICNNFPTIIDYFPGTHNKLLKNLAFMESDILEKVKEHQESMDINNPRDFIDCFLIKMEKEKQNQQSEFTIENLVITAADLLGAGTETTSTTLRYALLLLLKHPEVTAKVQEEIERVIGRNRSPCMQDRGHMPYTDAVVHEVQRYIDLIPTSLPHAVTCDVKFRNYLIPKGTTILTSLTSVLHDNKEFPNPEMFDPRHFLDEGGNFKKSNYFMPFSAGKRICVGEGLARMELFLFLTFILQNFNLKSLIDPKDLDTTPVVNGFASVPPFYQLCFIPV
T2 sequence (P10635 whole entry): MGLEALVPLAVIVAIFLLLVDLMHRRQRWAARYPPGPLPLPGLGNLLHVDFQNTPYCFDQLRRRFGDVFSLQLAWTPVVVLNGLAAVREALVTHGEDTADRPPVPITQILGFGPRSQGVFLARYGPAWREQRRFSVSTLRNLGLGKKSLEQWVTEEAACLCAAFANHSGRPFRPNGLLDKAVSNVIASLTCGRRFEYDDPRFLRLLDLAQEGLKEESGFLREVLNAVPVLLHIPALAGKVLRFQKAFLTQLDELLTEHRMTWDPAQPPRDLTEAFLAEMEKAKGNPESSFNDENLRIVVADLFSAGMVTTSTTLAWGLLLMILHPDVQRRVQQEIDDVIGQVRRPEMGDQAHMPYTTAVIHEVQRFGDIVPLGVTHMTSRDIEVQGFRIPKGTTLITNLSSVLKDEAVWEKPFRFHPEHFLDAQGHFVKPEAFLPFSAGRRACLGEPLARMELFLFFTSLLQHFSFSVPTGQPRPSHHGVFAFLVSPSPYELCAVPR
T5 sequence (P20815 whole entry): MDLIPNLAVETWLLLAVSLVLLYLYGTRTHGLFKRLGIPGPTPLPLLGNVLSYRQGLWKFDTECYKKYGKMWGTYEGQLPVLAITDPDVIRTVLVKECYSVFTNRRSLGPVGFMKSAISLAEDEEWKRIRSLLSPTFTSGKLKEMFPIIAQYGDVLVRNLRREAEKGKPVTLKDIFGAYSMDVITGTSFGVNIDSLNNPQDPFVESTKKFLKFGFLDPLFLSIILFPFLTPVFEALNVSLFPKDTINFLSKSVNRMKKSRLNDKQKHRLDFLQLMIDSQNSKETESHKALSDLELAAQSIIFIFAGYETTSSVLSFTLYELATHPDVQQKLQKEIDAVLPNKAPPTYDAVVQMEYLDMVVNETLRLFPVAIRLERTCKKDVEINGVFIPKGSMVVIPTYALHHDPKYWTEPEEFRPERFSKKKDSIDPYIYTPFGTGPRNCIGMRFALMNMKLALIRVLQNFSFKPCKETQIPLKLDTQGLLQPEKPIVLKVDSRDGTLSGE

`Nn1nnc2ccccc21` [ABT, 1-Aminobenzotriazol]: in data set [1], the “Reduction of apparent CLint of filapixant compared to untreated control” value (“Reduction” for short) fell in the range of 90 to 95%. Moreover, in the data set with pan-CYP, the inhibition at 1000 µM came to 94.5%.

Regarding `CCC(C)n1ncn(-c2ccc(N3CCN(c4ccc(OCC5COC(Cn6cncn6)(c6ccc(Cl)cc6Cl)O5)cc4)CC3)cc2)c1=O` (stereo not drawn) [Itraconazole, itraconazole], the “Effect of inhibitor on drug depletion of [3H]filapixant and formation of metabolites” value (from here on “Effect of inhibitor”) in data set [2] is recorded as “inhibited”. Further, the “Reduction” value in data set [1] fell in the range of 90 to 95%. Moreover, the inhibition at 2 µM in the data set with CYP3A4 [3] came out at 94.4%. For the same compound, the “Mean maximum concentrations of itraconazole” value in data set [4] is 1014.6 µg/L.

Regarding `C[C@@H](NC(=O)c1cc(OC[C@H]2CN(C)CCO2)cc(-c2ncc(CO)s2)c1)c1cnc(C(F)(F)F)nc1` [M-3], the “Remaining drug and formation of metabolites, Peak Area” value (from here on “Remaining drug and formation”) at CYP1A1 is listed as 2.9 % of Radioactivity; on CYP2D6 it was 5.4 % of Radioactivity; at CYP2J2 it was 0.9 % of Radioactivity; on CYP3A4 [5], 0.5 % of Radioactivity. Besides, the “Recovery of filapixant and metabolite formation, Liver Microsomes” value (shortened to “Recovery … Liver Microsomes”) in data set [6] is listed as 0.9 % of radioactivity. In addition, the “Recovery of filapixant and metabolite formation, Hepatocytes” value (“Recovery … Hepatocytes” for short) in data set [7] is reported as 0.4–0.8 % of radioactivity.

Turning to `Cc1cnc(-c2cc(OC[C@H]3CN(C)C(=O)CO3)cc(C(=O)N[C@H](C)c3cnc(C(F)(F)F)nc3)c2)s1` [M-4], the “Remaining drug and formation” value is given as 6.5 % of Radioactivity at CYP1A1, 6.1 % of Radioactivity on CYP3A4 [5] and 1.5 % of Radioactivity on CYP3A5. The “Vmax of metabolite formation” value at CYP3A4 [5] was found to be 9.20E+03 peak area/pmol CYP/min; in data set [8], 1.02E+04 peak area/pmol CYP/min. The “Vmax of metabolite formation (Michaelis-Menten plot, Figure S7)” value on CYP3A4 [5] (recombinant CYP3A4 25 pmol/mL, 20 min, rate axis: area metabolite/min/mg) is 9202. In addition, the “Recovery … Liver Microsomes” value in [6] was 7.6 % of radioactivity. Further, the “Recovery … Hepatocytes” value in data set [7] was 1.0–7.5 % of radioactivity. For the same compound, in data set [8] (human liver microsomes 0.5 mg/mL, 30 min, rate axis: area metabolite/min/mg), the “Vmax of metabolite formation (Michaelis-Menten plot, Figure S8)” value came out at 1.021e+4. For the same compound, the Km at 30 min in [8] amounted to 7.9 µM.

For the compound `C[C@@H](NC(=O)c1cc(OC[C@H]2CN(C)CCO2)cc(-c2ncc(C(=O)O)s2)c1)c1cnc(C(F)(F)F)nc1` [M-5], the “Remaining drug and formation” value is 0.2 % of Radioactivity at CYP2C9, 0.4 % of Radioactivity at CYP3A4 [5] and 0.5 % of Radioactivity on CYP4F2. Further, the “Recovery … Hepatocytes” value in data set [7] is 0–0.2 % of radioactivity.

With `CNC[C@@H](O)COc1cc(C(=O)N[C@H](C)c2cnc(C(F)(F)F)nc2)cc(-c2ncc(C)s2)c1` [M-8], the “Remaining drug and formation” value on CYP1A1 is on record as 0.7 % of Radioactivity; on CYP2C9 it was 0.2 % of Radioactivity; at CYP2C19, 0.2 % of Radioactivity; at CYP2J2 it was 0.7 % of Radioactivity; on CYP3A4 [5], 3.4 % of Radioactivity. The results for the “Vmax of metabolite formation” value (at CYP3A4 [5]; in data set [8]) were 2.48E+04 peak area/pmol CYP/min and 4.34E+04 peak area/pmol CYP/min, respectively. Also, the “Recovery … Liver Microsomes” value in data set [6] was 2.4 % of radioactivity. Besides, the “Recovery … Hepatocytes” value in [7] is 0–1.7 % of radioactivity. The Km at 30 min in data set [8] amounted to 28.5 µM.

With `Cc1cnc(-c2cc(OC[C@H](O)CN)cc(C(=O)N[C@H](C)c3cnc(C(F)(F)F)nc3)c2)s1` [M-11], the “Remaining drug and formation” value on CYP3A4 [5] is recorded as 1.9 % of Radioactivity; in [9], 0.2 % of Radioactivity. Moreover, in data set [7], the “Recovery … Hepatocytes” value is recorded as 0–0.3 % of radioactivity.

With `COCC(=O)O[C@]1(CCN(C)CCCc2nc3ccccc3[nH]2)CCc2cc(F)ccc2[C@@H]1C(C)C` [Mibefradil, mibefradil], in [2], the “Effect of inhibitor” value is listed as “inhibited”. For the same compound, the “Reduction” value in data set [1] is recorded as 90 to 95%. The inhibition at 2 µM in the data set on CYP3A4 [3] was 95.6%.

Turning to `CC[C@]1(C)C[C@@H](OC(=O)CSc2nnc(N)[nH]2)[C@]2(C)[C@H](C)CC[C@]3(CCC(=O)[C@H]32)[C@@H](C)[C@@H]1O` [azamulin], the “Effect of inhibitor” value in data set [2] is on record as “inhibited”.

Consider `Cc1cnc(-c2cc(O[C@@H]3CCOC3)cc(C(=O)N[C@H](C)c3cnc(C(F)(F)F)nc3)c2)s1` [eliapixant], for which the “Frequency of taste disturbances / taste-related side effects” value in data set [10] was “considerably reduced compared to gefapixant”.

Consider `COc1cc(C(C)C)c(Oc2cnc(N)nc2N)cc1S(N)(=O)=O` [gefapixant], for which the “Frequency of taste disturbances / taste-related side effects” value in data set [10] is listed as “high frequency”.
